These molecules were tested against T1, 5-α-reductase (Homo sapiens, UniProt P31213) (assay: Steroid 5-α-reductase in vitro assay (prostatic microsomes, conversion of [3H]-testosterone to DHT)). Settings: microsomes from human (BPH) prostate tissue; 100 nM [1,2,6,7-^3 H]-testosterone, 1 mM NADPH, 60 minutes at 37° C.; HPLC with radiochemical detection; read-out: 5-α-REDUCTASE in vitro INHIBITORY ACTIVITY IC50 Human.
T1 construct: microsomes derived from human prostate tissue; from tissue; host or cells: human prostate tissue (BPH patients), microsomes
T1 sequence (P31213 1-254): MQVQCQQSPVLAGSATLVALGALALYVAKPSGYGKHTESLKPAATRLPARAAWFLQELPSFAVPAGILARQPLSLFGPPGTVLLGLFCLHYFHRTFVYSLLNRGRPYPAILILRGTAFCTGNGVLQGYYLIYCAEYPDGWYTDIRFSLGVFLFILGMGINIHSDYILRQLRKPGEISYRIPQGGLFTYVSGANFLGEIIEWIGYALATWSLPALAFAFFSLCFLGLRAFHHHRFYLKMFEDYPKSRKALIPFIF
Type: biochemical
Description: Enzyme activity may be determined using microsomes derived from prostate tissue of benign prostatic hypertrophy (BPH) patients or from rat prostate tissue. Prostatic microsomes were prepared by homogenization of the tissue, followed by differential centrifugation of the homogenate. Microsome extracts were incubated with 100 nM [1,2,6,7-^3 H]-testosterone, 1 mM NADPH and varying amounts of the a compounds of Formula (I), i.e., a test compound, for 60 minutes at 37° C. Corresponding incubations were carried out with no test compound as a control study. The percentage of conversion of testosterone to DHT in the presence of a test compounds compared to the corresponding conversion in the control study was estimated using high pressure liquid chromatography (HPLC) with radiochemical detection. The results of this assay as IC50 values for microsomes derived from human prostate tissue are show in Table 1.

IC50	SMILES
100 to 1000 nM	CCN(CC)C(=O)[C@H]1CC[C@H]2[C@@H]3Cn4nnc5c4[C@](C)(CCC5=O)[C@H]3CC[C@]12C [Compound 1, 17β-N,N-Diethylcarbamoyl-6-azaandrost-4,6-diazo-4-en-3-one]
10 to 100 nM	CCN(CC)C(=O)[C@H]1CC[C@H]2[C@@H]3Cn4ccc5c4[C@](C)(CCC5=O)[C@H]3CC[C@]12C [Compound 2, 17β-N,N-Diethylcarbamoyl-6-azaandrost-4,6-etheno-4-en-3-one]
10 to 100 nM	CC(C)(C)NC(=O)[C@H]1CC[C@H]2[C@@H]3Cn4ccc5c4[C@](C)(CCC5=O)[C@H]3CC[C@]12C [Compound 3, 17β-N-t-Butylcarbamoyl-6-azaandrost-4,6-etheno-4-en-3-one]
10 to 100 nM	CC(C)(C)NC(=O)[C@H]1CC[C@H]2[C@@H]3CN4CCCCC5=C4[C@](C)(CCC5=O)[C@H]3CC[C@]12C [Compound 4, 17β-N-t-Butylcarbamoyl-6-azaandrost-4,6-butano-4-en-3-one]

From US5302589A, “Heterocyclic inhibitors of 5-α-testosterone reductase” (Glaxo, Inc., priority 1992, dated 1994)
